Data on four compounds can be found in US7563781B2, “Triazolopyrimidine derivatives” (Janssen Pharmaceutica NV, priority 2006, dated 2009).

For assay [1], the target named is T1, Focal Adhesion Kinase (full-length Flag-tagged human FAK) (Homo sapiens, UniProt Q05397).
T1 construct: a purified recombinant full-length Flag-tagged human FAK protein; Flag; made in house; host or cells: baculovirus infected insect cells
The assay can be described thus: in vitro FAK ELISA kinase assay. It is filed as biochemical. As to conditions: compound 10 uM; ATP 2 uM; read-out: FAK % Inhib ave: 10 uM. Put shortly: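 Plate-coated GST fusion of the 73-residue region around Tyr397 phosphorylated by full-length Flag-tagged human FAK from baculovirus-infected insect cells, with 2 μM ATP in Mg/Mn HEPES pH 7.5, 1 h at 30 °C. Phosphotyrosine detected by HRP-anti-pTyr ELISA with TMB read-out. Compounds screened at 10 μM or titrated from 50 μM in half-log steps for IC50, BSA-substrate background subtracted.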
(An ELISA detects its analyte on a solid surface through an enzyme-linked reagent.)

For assay [2], the target named is T2, CAK complex (human Cdk7, human Cyclin H, MAT-1) (Homo sapiens, UniProt P50613).
T2 construct: made in house; host or cells: SF-900 insect cells co-infected with Flag-Cdk7 and Bab-Cyclin H baculoviruses
T2 sequence (P50613 with tags, fused parts or gaps): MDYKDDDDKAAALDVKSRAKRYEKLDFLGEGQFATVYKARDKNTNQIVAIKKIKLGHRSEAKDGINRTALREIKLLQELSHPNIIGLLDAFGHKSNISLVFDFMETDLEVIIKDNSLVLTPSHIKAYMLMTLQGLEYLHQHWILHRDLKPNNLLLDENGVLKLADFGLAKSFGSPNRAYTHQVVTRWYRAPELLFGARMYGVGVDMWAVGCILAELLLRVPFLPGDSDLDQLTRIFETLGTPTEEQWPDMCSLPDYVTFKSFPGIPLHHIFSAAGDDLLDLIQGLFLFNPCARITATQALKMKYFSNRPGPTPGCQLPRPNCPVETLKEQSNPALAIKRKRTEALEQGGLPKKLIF
T2 sequence (as listed by the source partner): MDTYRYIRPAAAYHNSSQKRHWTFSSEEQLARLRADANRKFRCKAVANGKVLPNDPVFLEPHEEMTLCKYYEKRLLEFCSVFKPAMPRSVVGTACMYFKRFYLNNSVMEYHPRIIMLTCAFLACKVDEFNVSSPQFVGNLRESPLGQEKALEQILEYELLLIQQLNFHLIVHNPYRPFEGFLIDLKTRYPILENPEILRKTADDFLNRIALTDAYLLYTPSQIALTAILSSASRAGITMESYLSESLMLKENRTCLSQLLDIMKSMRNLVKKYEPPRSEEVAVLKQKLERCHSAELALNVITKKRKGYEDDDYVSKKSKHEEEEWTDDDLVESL
In words: in vitro time-resolved-fluorescence assay for the CAK kinase activity. Format: biochemical. The conditions noted are these: compound 20 uM; read-out: CAK % inhib; 20 uM. An outline of the steps: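 Kinase activity of the human CAK complex (Flag-tagged Cdk7, Cyclin H, MAT-1), purified from co-infected SF-900 insect cells by Flag-M2 immunoaffinity, was measured by time-resolved fluorescence. In black glutathione-coated 96-well plates, 500 ng GST-CTD substrate with 22 uM ATP was mixed with compound in 30% DMSO/25 mM Hepes and 250 ng CAK. Plates were incubated 20 minutes at 30° C, then stopped with EDTA, bound overnight and washed. A Europium-labeled antibody detected serine-phosphorylated CTD.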

T1 sequence (Q05397 whole entry): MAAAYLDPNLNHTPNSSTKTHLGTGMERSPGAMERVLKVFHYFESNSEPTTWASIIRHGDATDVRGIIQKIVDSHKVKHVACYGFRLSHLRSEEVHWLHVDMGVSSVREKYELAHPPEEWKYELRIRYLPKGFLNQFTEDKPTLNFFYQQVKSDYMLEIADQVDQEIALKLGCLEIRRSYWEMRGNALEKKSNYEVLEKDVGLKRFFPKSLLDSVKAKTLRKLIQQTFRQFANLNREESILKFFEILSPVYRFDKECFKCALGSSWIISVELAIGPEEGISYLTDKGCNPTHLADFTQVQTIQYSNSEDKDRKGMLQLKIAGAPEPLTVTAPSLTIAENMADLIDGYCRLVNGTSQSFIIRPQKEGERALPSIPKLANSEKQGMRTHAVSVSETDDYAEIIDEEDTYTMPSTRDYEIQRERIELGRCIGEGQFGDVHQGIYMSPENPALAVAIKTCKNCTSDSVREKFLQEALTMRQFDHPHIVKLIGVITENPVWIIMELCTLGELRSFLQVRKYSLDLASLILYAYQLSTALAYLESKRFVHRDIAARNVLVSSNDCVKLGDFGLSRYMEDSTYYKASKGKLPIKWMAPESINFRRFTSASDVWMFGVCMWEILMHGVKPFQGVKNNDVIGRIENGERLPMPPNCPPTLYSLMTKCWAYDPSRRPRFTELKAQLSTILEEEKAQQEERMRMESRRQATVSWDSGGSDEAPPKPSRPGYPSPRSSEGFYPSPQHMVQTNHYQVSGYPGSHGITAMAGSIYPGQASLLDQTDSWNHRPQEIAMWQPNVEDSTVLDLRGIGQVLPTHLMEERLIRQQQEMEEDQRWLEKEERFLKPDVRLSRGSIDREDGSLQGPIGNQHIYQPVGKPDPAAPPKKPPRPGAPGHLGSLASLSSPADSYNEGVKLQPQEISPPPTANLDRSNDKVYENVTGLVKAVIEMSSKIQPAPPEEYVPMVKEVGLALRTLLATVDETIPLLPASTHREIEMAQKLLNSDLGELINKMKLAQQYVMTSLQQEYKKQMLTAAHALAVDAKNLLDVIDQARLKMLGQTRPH

Turning to `CN(CCCOc1ccc(Nc2ncc3nnn(-c4ccc5c(c4)CCC5)c3n2)cc1)Cc1ccccc1` [Compound 90, {4-[3-(Benzyl-methyl-amino)-propoxy]-phenyl}-(3-indan-5-yl-3H-[1,2,3]triazolo[4,5-d]pyrimidin-5-yl)-amine], in assay [1], the inhibition at 10 µM was found to be 31.7%. Moreover, the inhibition at 20 µM in assay [2] was 47.5%.

`c1cc(OCCCN2CCOCC2)ccc1Nc1ncc2nnn(-c3ccc4c(c3)CCC4)c2n1` [Compound 91, (3-Indan-5-yl-3H-[1,2,3]triazolo[4,5-d]pyrimidin-5-yl)-[4-(3-morpholin-4-yl-propoxy)-phenyl]-amine]: in assay [1], the inhibition at 10 µM is 10.4%. For the same compound, the inhibition at 20 µM in assay [2] is 48.7%.

Regarding `c1cc(OCCCN2CCCC2)ccc1Nc1ncc2nnn(-c3ccc4c(c3)CCC4)c2n1` [Compound 92, (3-Indan-5-yl-3H-[1,2,3]triazolo[4,5-d]pyrimidin-5-yl)-[4-(3-pyrrolidin-1-yl-propoxy)-phenyl]-amine], the inhibition at 10 µM in assay [1] was 91.2%. In assay [2], the inhibition at 20 µM was 103%.

In the case of `OC1CCN(CCCOc2ccc(Nc3ncc4nnn(-c5ccc6c(c5)CCC6)c4n3)cc2)C1` (centres unmarked) [Compound 93, 1-{3-[4-(3-Indan-5-yl-3H-[1,2,3]triazolo[4,5-d]pyrimidin-5-ylamino)-phenoxy]-propyl}-pyrrolidin-3-ol], the inhibition at 10 µM in assay [1] was 90.8%. For the same compound, the inhibition at 20 µM in assay [2] was determined as 101%.
